Data published in patent US12453709B2, “Compositions and methods for treating autism” (priority 2013, dated 2025).
Marks after values point to notes of the source that are not given here.

System: male patients diagnosed with autism
Assay: Study HT 02-121: adverse events
Type: in vivo, human
Protocol: The purpose of this clinical study (referred to herein as “Study HT 02-121”; i.e., Example 6) was to determine whether L1-79 was a well-tolerated and clinically useful agent for the treatment of ASD, and to assess the PK and pharmacodynamics (PD) of four weeks of TID dosing with L1-79. […] The first cohort of 20 patients was comprised of three groups of patients: The first group of five patients received open-label L1-79 100 mg TID and underwent PK and EKG assessments. […] The PK and safety data from the open-label L1-79 100 mg TID group was submitted to FDA for review and acceptance before the second cohort was enrolled. The second cohort was procedurally identical to the first. The second cohort of 20 patients was comprised of the same three groups of patients but a dose of 200 mg TID was used instead of 100 mg TID. The key inclusion criteria were as follows: […] Safety was the primary endpoint of the study. The following safety endpoints were assessed: ECGs, physical exams, laboratory evaluations (hematology, chemistry and urinalysis), vital signs, including orthostatic blood pressure, adverse events (AEs) and concomitant medications. The incidence of AEs by primary system organ class and preferred term is presented in Table 7, and a listing of the AEs reported during the study is presented in Table 8. All AEs were mild to moderate in intensity and self-limited.

CC(N)(Cc1ccc(O)cc1)C(=O)O (racemic) [L1-79, α-methyl-DL-tyrosine]
safety and tolerability (28-day treatment period): safe and well tolerated
Incidence of AEs: Agitation (DB 100 mg TID, N = 10): 0[0] n(%)
Incidence of AEs: All primary SOC (DB 100 mg TID, N = 10): 1(10.0) n(%)
Incidence of AEs: Amylase † (DB 100 mg TID, N = 10): 0[0] n(%)
Incidence of AEs: Anxiety (DB 100 mg TID, N = 10): 0[0] n(%)
Incidence of AEs: Blood TSH † (DB 100 mg TID, N = 10): 0[0] n(%)
Incidence of AEs: Confusional state (DB 100 mg TID, N = 10): 0[0] n(%)
Incidence of AEs: Cough (DB 100 mg TID, N = 10): 0[0] n(%)
Incidence of AEs: Crystal urine present (DB 100 mg TID, N = 10): 0[0] n(%)
Incidence of AEs: Diarrhoea (DB 100 mg TID, N = 10): 0[0] n(%)
Incidence of AEs: Ear infection (DB 100 mg TID, N = 10): 0[0] n(%)
Incidence of AEs: Fatigue (DB 100 mg TID, N = 10): 0[0] n(%)
Incidence of AEs: GI disorders (DB 100 mg TID, N = 10): 0[0] n(%)
Incidence of AEs: General disorders & administration site conditions (DB 100 mg TID, N = 10): 0[0] n(%)
Incidence of AEs: Generalized tonic-clonic seizure (DB 100 mg TID, N = 10): 0[0] n(%)
Incidence of AEs: Immune system disorders (DB 100 mg TID, N = 10): 0[0] n(%)
Incidence of AEs: Infections and infestations (DB 100 mg TID, N = 10): 0[0] n(%)
Incidence of AEs: International self-injury (DB 100 mg TID, N = 10): 0[0] n(%)
Incidence of AEs: Investigations (DB 100 mg TID, N = 10): 0[0] n(%)
Incidence of AEs: Irritability (DB 100 mg TID, N = 10): 0[0] n(%)
Incidence of AEs: Nasopharyngitis (DB 100 mg TID, N = 10): 0[0] n(%)
Incidence of AEs: Nervous system disorders (DB 100 mg TID, N = 10): 1(10.0) n(%)
Incidence of AEs: Otitis externa (DB 100 mg TID, N = 10): 0[0] n(%)
Incidence of AEs: Psychiatric disorders (DB 100 mg TID, N = 10): 0[0] n(%)
Incidence of AEs: Pyrexia (DB 100 mg TID, N = 10): 0[0] n(%)
Incidence of AEs: Renal and urinary disorders (DB 100 mg TID, N = 10): 0[0] n(%)
Incidence of AEs: Respiratory, thoracic & mediastinal disorders (DB 100 mg TID, N = 10): 0[0] n(%)
Incidence of AEs: Seasonal allergy (DB 100 mg TID, N = 10): 0[0] n(%)
Incidence of AEs: Syncope (DB 100 mg TID, N = 10): 1(10.0) n(%)
Incidence of AEs: Urinary incontinence (DB 100 mg TID, N = 10): 0[0] n(%)
Number of AE events: All primary SOC (DB 100 mg TID, N = 10): 1 [e]
Number of AE events: Nervous system disorders (DB 100 mg TID, N = 10): 1 [e]
Number of AE events: Syncope (DB 100 mg TID, N = 10): 1 [e]
Incidence of AEs: Agitation (DB 200 mg TID, N = 11): 0[0] n(%)
Incidence of AEs: All primary SOC (DB 200 mg TID, N = 11): 6(54.5) n(%)
Incidence of AEs: Amylase † (DB 200 mg TID, N = 11): 0[0] n(%)
Incidence of AEs: Anxiety (DB 200 mg TID, N = 11): 1(9.1) n(%)
Incidence of AEs: Blood TSH † (DB 200 mg TID, N = 11): 1(9.1) n(%)
Incidence of AEs: Confusional state (DB 200 mg TID, N = 11): 0[0] n(%)
Incidence of AEs: Cough (DB 200 mg TID, N = 11): 0[0] n(%)
Incidence of AEs: Crystal urine present (DB 200 mg TID, N = 11): 2(18.2) n(%)
Incidence of AEs: Diarrhoea (DB 200 mg TID, N = 11): 3(27.3) n(%)
Incidence of AEs: Ear infection (DB 200 mg TID, N = 11): 1(9.1) n(%)
Incidence of AEs: Fatigue (DB 200 mg TID, N = 11): 0[0] n(%)
Incidence of AEs: GI disorders (DB 200 mg TID, N = 11): 3(27.3) n(%)
Incidence of AEs: General disorders & administration site conditions (DB 200 mg TID, N = 11): 0[0] n(%)
Incidence of AEs: Generalized tonic-clonic seizure (DB 200 mg TID, N = 11): 1(9.1) n(%)
Incidence of AEs: Immune system disorders (DB 200 mg TID, N = 11): 0[0] n(%)
Incidence of AEs: Infections and infestations (DB 200 mg TID, N = 11): 2(18.2) n(%)
Incidence of AEs: International self-injury (DB 200 mg TID, N = 11): 0[0] n(%)
Incidence of AEs: Investigations (DB 200 mg TID, N = 11): 3(27.3) n(%)
Incidence of AEs: Irritability (DB 200 mg TID, N = 11): 0[0] n(%)
Incidence of AEs: Nasopharyngitis (DB 200 mg TID, N = 11): 0[0] n(%)
Incidence of AEs: Nervous system disorders (DB 200 mg TID, N = 11): 1(9.1) n(%)
Incidence of AEs: Otitis externa (DB 200 mg TID, N = 11): 1(9.1) n(%)
Incidence of AEs: Psychiatric disorders (DB 200 mg TID, N = 11): 1(9.1) n(%)
Incidence of AEs: Pyrexia (DB 200 mg TID, N = 11): 0[0] n(%)
Incidence of AEs: Renal and urinary disorders (DB 200 mg TID, N = 11): 0[0] n(%)
Incidence of AEs: Respiratory, thoracic & mediastinal disorders (DB 200 mg TID, N = 11): 0[0] n(%)
Incidence of AEs: Seasonal allergy (DB 200 mg TID, N = 11): 0[0] n(%)
Incidence of AEs: Syncope (DB 200 mg TID, N = 11): 0[0] n(%)
Incidence of AEs: Urinary incontinence (DB 200 mg TID, N = 11): 0[0] n(%)
Number of AE events: All primary SOC (DB 200 mg TID, N = 11): 10 [e]
Number of AE events: Anxiety (DB 200 mg TID, N = 11): 1 [e]
Number of AE events: Blood TSH † (DB 200 mg TID, N = 11): 1 [e]
Number of AE events: Crystal urine present (DB 200 mg TID, N = 11): 2 [e]
Number of AE events: Diarrhoea (DB 200 mg TID, N = 11): 3 [e]
Number of AE events: Ear infection (DB 200 mg TID, N = 11): 1 [e]
Number of AE events: GI disorders (DB 200 mg TID, N = 11): 3 [e]
Number of AE events: Generalized tonic-clonic seizure (DB 200 mg TID, N = 11): 1 [e]
Number of AE events: Infections and infestations (DB 200 mg TID, N = 11): 2 [e]
Number of AE events: Investigations (DB 200 mg TID, N = 11): 3 [e]
Number of AE events: Nervous system disorders (DB 200 mg TID, N = 11): 1 [e]
Number of AE events: Otitis externa (DB 200 mg TID, N = 11): 1 [e]
Number of AE events: Psychiatric disorders (DB 200 mg TID, N = 11): 1 [e]
Incidence of AEs: Agitation (OL 100 mg TID, N = 5): 0[0] n(%)
Incidence of AEs: All primary SOC (OL 100 mg TID, N = 5): 2(40.0) n(%)
Incidence of AEs: Amylase † (OL 100 mg TID, N = 5): 0[0] n(%)
Incidence of AEs: Anxiety (OL 100 mg TID, N = 5): 1(20.0) n(%)
Incidence of AEs: Blood TSH † (OL 100 mg TID, N = 5): 0[0] n(%)
Incidence of AEs: Confusional state (OL 100 mg TID, N = 5): 1(20.0) n(%)
Incidence of AEs: Cough (OL 100 mg TID, N = 5): 0[0] n(%)
Incidence of AEs: Crystal urine present (OL 100 mg TID, N = 5): 0[0] n(%)
Incidence of AEs: Diarrhoea (OL 100 mg TID, N = 5): 0[0] n(%)
Incidence of AEs: Ear infection (OL 100 mg TID, N = 5): 0[0] n(%)
Incidence of AEs: Fatigue (OL 100 mg TID, N = 5): 0[0] n(%)
Incidence of AEs: GI disorders (OL 100 mg TID, N = 5): 0[0] n(%)
Incidence of AEs: General disorders & administration site conditions (OL 100 mg TID, N = 5): 0[0] n(%)
Incidence of AEs: Generalized tonic-clonic seizure (OL 100 mg TID, N = 5): 0[0] n(%)
Incidence of AEs: Immune system disorders (OL 100 mg TID, N = 5): 0[0] n(%)
Incidence of AEs: Infections and infestations (OL 100 mg TID, N = 5): 0[0] n(%)
Incidence of AEs: International self-injury (OL 100 mg TID, N = 5): 2(40.0) n(%)
Incidence of AEs: Investigations (OL 100 mg TID, N = 5): 0[0] n(%)
Incidence of AEs: Irritability (OL 100 mg TID, N = 5): 2(40.0) n(%)
